According to ChEMBL document CHEMBL2331486, “Identification of diaryl 5-amino-1,2,4-oxadiazoles as tubulin inhibitors: the special case of 3-(2-fluorophenyl)-5-(4-methoxyphenyl)amino-1,2,4-oxadiazole” (Bioorg Med Chem Lett, 2013):
The source made the active and inactive calls. The rule behind the calls is not given here.

Experiments:
Tubulin (Homo sapiens) [1] = target: T1, Tubulin (Homo sapiens) (UniProt P68371+Q9H4B7+P0DPH7+P68366+Q13509+Q71U36+P04350+Q3ZCM7+P07437+P68363+Q9BQE3+Q6PEY2+Q13885+Q9BVA1+Q9BUF5); settings: at 1 µM
Description: Displacement of [3H]colchicine from tubulin (unknown origin) at 1 uM after 10 mins

Tubulin = test: Inhibition of tubulin (unknown origin) assembly after 20 mins by turbidimetric analysis; format: protein-complex assay, Homo sapiens
[2] = Growth inhibition of human NCI60 cells; format: functional
Tubulin (Homo sapiens) [3] = target: T1, Tubulin (Homo sapiens); settings: at 5 µM
Description: Displacement of [3H]colchicine from tubulin (unknown origin) at 5 uM after 10 mins

CAKI-1 = test: Cytotoxicity against human Caki1 cells; format: functional
SK-MEL-2 = test: Cytotoxicity against human SK-MEL-2 cells; format: functional
A549 = test: Cytotoxicity against human A549 cells; format: functional
KM12 = test: Cytotoxicity against human KM12 cells; format: functional
SNB-19 = test: Cytotoxicity against human SNB19 cells; format: functional
NCI-H322M = test: Cytotoxicity against human NCI-H322M cells; format: functional
SNB-75 = test: Cytotoxicity against human SNB75 cells; format: functional
TK-10 = test: Cytotoxicity against human TK10 cells; format: functional
SK-OV-3 = test: Cytotoxicity against human SKOV3 cells; format: functional
K562 = test: Cytotoxicity against human K562 cells; format: functional
UACC-62 = test: Cytotoxicity against human UACC62 cells; format: functional
OVCAR-3 = test: Cytotoxicity against human OVCAR3 cells; format: functional
SF-295 = test: Cytotoxicity against human SF295 cells; format: functional
HCT-15 = test: Cytotoxicity against human HCT15 cells; format: functional
U-251 = test: Cytotoxicity against human U251 cells; format: functional
IGROV-1 = test: Cytotoxicity against human IGROV1 cells; format: functional
OVCAR-8 = test: Cytotoxicity against human OVCAR8 cells; format: functional
SN12C = test: Cytotoxicity against human SN12C cells; format: functional
MDA-MB-435 = test: Cytotoxicity against human MDA-MB-435 cells; format: functional
SK-MEL-5 = test: Cytotoxicity against human SK-MEL-5 cells; format: functional
NCI-H226 = test: Cytotoxicity against human NCI-H226 cells; format: functional
SK-MEL-28 = test: Cytotoxicity against human SK-MEL-28 cells; format: functional
OVCAR-4 = test: Cytotoxicity against human OVCAR4 cells; format: functional
MOLT-4 = test: Cytotoxicity against human MOLT4 cells; format: functional
COLO 205 = test: Cytotoxicity against human COLO205 cells; format: functional
A498 = test: Cytotoxicity against human A498 cells; format: functional
MDA-MB-468 = test: Cytotoxicity against human MDA-MB-468 cells; format: functional
ACHN = test: Cytotoxicity against human ACHN cells; format: functional
UACC-257 = test: Cytotoxicity against human UACC257 cells; format: functional
HOP-62 = test: Cytotoxicity against human HOP62 cells; format: functional
HL-60(TB) = test: Cytotoxicity against human HL-60(TB) cells; format: functional
PC-3 = test: Cytotoxicity against human PC3 cells; format: functional
[4] = Cytotoxicity against human EKVX cells; format: functional
CCRF-CEM = test: Cytotoxicity against human CCRF-CEM cells; format: functional
T47D = test: Cytotoxicity against human T47D cells; format: functional
SF-268 = test: Cytotoxicity against human SF268 cells; format: functional
NCI-H522 = test: Cytotoxicity against human NCI-H522 cells; format: functional
NCI-H460 = test: Cytotoxicity against human NCI-H460 cells; format: functional
MDA-MB-231 = test: Cytotoxicity against human MDA-MB-231 cells; format: functional
DU-145 = test: Cytotoxicity against human DU145 cells; format: functional
Malme-3M = test: Cytotoxicity against human MALME-3M cells; format: functional
SW-620 = test: Cytotoxicity against human SW620 cells; format: functional
MCF7 = test: Cytotoxicity against human MCF7 cells; format: functional
RXF 393 = test: Cytotoxicity against human RXF393 cells; format: functional
OVCAR-5 = test: Cytotoxicity against human OVCAR5 cells; format: functional
UO-31 = test: Cytotoxicity against human UO31 cells; format: functional
SF-539 = test: Cytotoxicity against human SF539 cells; format: functional
[5] = Cytotoxicity against human Hs 578T cells; format: functional
HOP-92 = test: Cytotoxicity against human HOP92 cells; format: functional
HT-29 = test: Cytotoxicity against human HT-29 cells; format: functional
RPMI-8226 = test: Cytotoxicity against human RPMI8226 cells; format: functional
[6] = Growth inhibition of human KBV1a cells; format: functional; settings: pooled result: one value given for 5 cell lines, strains, targets or settings

In the case of `COc1cccc(-c2noc(Nc3ccc(C)cc3)n2)c1OC`, the inhibition (Tubulin (Homo sapiens) [1]) is reported as 24%, the IC50 (Tubulin) is reported as 3600 nM and the GI50 [2] is reported as 2630 nM. It also gave an inhibition (Tubulin (Homo sapiens) [3]) of 52%.

For `COc1ccc(OC)c(-c2noc(Nc3ccc4c(c3)OCO4)n2)c1`, the inhibition (Tubulin (Homo sapiens) [1]) was 21%, the IC50 (Tubulin) was 2500 nM and the GI50 [2] was 6460 nM. For the same molecule, the inhibition (Tubulin (Homo sapiens) [3]) was 52%.

Molecule `CCOc1ccc(Nc2nc(-c3cccc(OC)c3)no2)cc1` has an inhibition (Tubulin (Homo sapiens) [1]) of 37%, an IC50 (Tubulin) of 1600 nM and a GI50 [2] of 851 nM. It also gave an inhibition (Tubulin (Homo sapiens) [3]) of 78%.

`COc1cccc(-c2noc(Nc3ccc4c(c3)OCCO4)n2)c1` gave an inhibition (Tubulin (Homo sapiens) [1]) of 38%, an IC50 (Tubulin) of 1900 nM and an inhibition (Tubulin (Homo sapiens) [3]) of 76%.

With `COc1ccc(Nc2nc(-c3ccccc3F)no2)cc1` the GI50 (CAKI-1) was 64.6 nM, the GI50 (SK-MEL-2) was 39.8 nM and the GI50 (A549) was 91.2 nM. For the same molecule, the GI50 (KM12) was 112 nM, the GI50 (SNB-19) was 87.1 nM and the GI50 (NCI-H322M) was 501 nM. It also gave an inhibition (Tubulin (Homo sapiens) [1]) of 68%, a GI50 (SNB-75) of 141 nM and a GI50 (TK-10) of 832 nM. The GI50 (SK-OV-3) was 204 nM, the GI50 (K562) was 30.9 nM and the GI50 (UACC-62) was 53.7 nM. It also gave a GI50 (OVCAR-3) of 38 nM, a GI50 (SF-295) of 61.7 nM and a GI50 (HCT-15) of 85.1 nM. The GI50 (U-251) was 60.3 nM, the GI50 (IGROV-1) was 389 nM and the GI50 (OVCAR-8) was 209 nM. It also gave a GI50 (SN12C) of 240 nM, a GI50 (MDA-MB-435) of 19.9 nM and a GI50 (SK-MEL-5) of 151 nM. For the same molecule, the IC50 (Tubulin) was 1100 nM, the GI50 (NCI-H226) was 2190 nM and the GI50 (SK-MEL-28) was 339 nM. It also gave a GI50 (OVCAR-4) of 776 nM, a GI50 (MOLT-4) of 91.2 nM and a GI50 (COLO 205) of 126 nM. For the same molecule, the GI50 (A498) was 229 nM, the GI50 (MDA-MB-468) was 1070 nM and the GI50 (ACHN) was 490 nM. The GI50 (UACC-257) was 14100 nM, the GI50 (HOP-62) was 135 nM and the GI50 (HL-60(TB)) was 25.7 nM. It also gave a GI50 (PC-3) of 447 nM, a GI50 [4] of 1510 nM and a GI50 (CCRF-CEM) of 138 nM. The GI50 (T47D) was 15100 nM, the GI50 [2] was 204 nM and the GI50 (SF-268) was 501 nM. For the same molecule, the GI50 (NCI-H522) was 19.9 nM, the GI50 (NCI-H460) was 61.7 nM and the inhibition (Tubulin (Homo sapiens) [3]) was 91%. The GI50 (MDA-MB-231) was 676 nM, the GI50 (DU-145) was 141 nM and the GI50 (Malme-3M) was 58.9 nM. The GI50 (SW-620) was 47.9 nM, the GI50 (MCF7) was 263 nM and the GI50 (RXF 393) was 155 nM. It also gave a GI50 (OVCAR-5) of 724 nM, a GI50 (UO-31) of 339 nM and a GI50 (SF-539) of 107 nM. The GI50 [5] was 389 nM, the GI50 (HOP-92) was 3800 nM and the GI50 (HT-29) was 34.7 nM. The GI50 (RPMI-8226) was 372 nM.

For `Fc1ccccc1Nc1nc(-c2ccccc2)no1`, the inhibition (Tubulin (Homo sapiens) [1]) was “inactive” and the inhibition (Tubulin (Homo sapiens) [3]) was “inactive”.

With `CCc1ccc(Nc2nc(-c3ccccc3F)no2)cc1` the inhibition (Tubulin (Homo sapiens) [1]) was 41%, the IC50 (Tubulin) was 2700 nM and the inhibition (Tubulin (Homo sapiens) [3]) was 73%.

In the case of `CCc1ccc(Nc2nc(-c3cc(OC)ccc3OC)no2)cc1`, the inhibition (Tubulin (Homo sapiens) [1]) is reported as 36%, the IC50 (Tubulin) is reported as 1800 nM and the GI50 [2] is reported as 575 nM. For the same molecule, the inhibition (Tubulin (Homo sapiens) [3]) was 65%.

With `COc1ccc(OC)c(-c2noc(Nc3ccc(C)c(F)c3)n2)c1` the inhibition (Tubulin (Homo sapiens) [1]) was “inactive”, the IC50 (Tubulin) was 3500 nM and the inhibition (Tubulin (Homo sapiens) [3]) was 53%.

In the case of `COc1ccc(Nc2nc(-c3cccc(OC)c3OC)no2)cc1`, the inhibition (Tubulin (Homo sapiens) [1]) is reported as 31%, the IC50 (Tubulin) is reported as 2600 nM and the GI50 [2] is reported as 245 nM. It also gave an inhibition (Tubulin (Homo sapiens) [3]) of 68%.

Work on `COc1ccc(Nc2nc(-c3ccccc3)no2)cc1Cl` yielded an inhibition (Tubulin (Homo sapiens) [1]) of 52%, an IC50 (Tubulin) of 1700 nM and an inhibition (Tubulin (Homo sapiens) [3]) of 80%.

Molecule `CCc1ccc(Nc2nc(-c3cccc(OC)c3)no2)cc1` has an inhibition (Tubulin (Homo sapiens) [1]) of 40%, an IC50 (Tubulin) of 1600 nM and an inhibition (Tubulin (Homo sapiens) [3]) of 81%.

Work on `COc1ccc(/C=C\c2cc(OC)c(OC)c(OC)c2)cc1O` [COMBRETASTATIN A4] yielded a GI50 [2] of 14.8 nM.

`COc1ccc(-n2cnnc2-c2cc(OC)c(OC)c(OC)c2)cc1F` gave a GI50 [6] of 556 nM.
